Measurements from patent publication US20230391779A1, “BICYCLIC COMPOUNDS, COMPOSITIONS AND USE THEREOF” (Betta Pharmaceuticals Co., Ltd., priority 2020, published 2023).
pEC50: −log10 of the molar value.

These compounds were tested on TEAD-YAP/TAZ interaction (assay: CTGF ELISA assay). Details: CTGF in culture supernatant of NCI-H2052 cells, 24 hours with compound.
Format: cell-based, human
Experimental: The detection of CTGF expression level can assessed the binding activity of TEAD-YAP/TAZ transcription factor, and the CTGF expression level was quantified by SimpleStep ELISA® kit (Abcam, ab261851).
NCI-H2052 cells (Purchased from ATCC) were cultured in RPMI 1640 medium, adding 10% FBS and 1% Penicillin-Streptomycin Solution and 1 mM Sodium pyruvate. The day before compounds treatment, the cultured cells were washed with PBS and digested with trypsin, then centrifuged and collected. Discarded the supernatant, the cells were resuspended in fresh complete medium. After cells counted, cells were seeded at 6500 cells/well in 96-well plates. And then cells were cultured overnight in incubator (37° C., 5% CO2).
After the cells were cultured overnight, discarded the culture supernatant, then washed with PBS solution, cells were incubated with 200 μl medium containing compounds in each well. The starting concentration was 10 μM and serial dilution in DMSO and medium were performed to achieve a final DMSO concentration of 0.5% (Final compounds concentration were 10000, 2500, 625, 156, 39.1, 9.77, 2.44, 0.61 nM, 0 nM (0.5% DMSO), The cells were then cultured in incubator (37° C., 5% CO2). Cultured for 24 hours, the cells were centrifuged at 1500 RPM at 4° C. for 5 minutes, and then 50 μl of culture supernatant were tested for CTGF ELISA assay.
The Human CTGF SimpleStep ELISA® Kit (Abcam, ab261851) employs an affinity tag labeled capture antibody and a reporter conjugated detector antibody which immunocapture the sample analyte in solution. This entire complex (capture antibody/analyte/detector antibody) is in turn immobilized via immunoaffinity of an anti-tag antibody coating the well. To perform the assay, samples or standards are added to the wells, followed by the antibody mix (capture antibody/detector antibody). After incubation, the wells are washed to remove unbound material. TMB Development Solution is added and during incubation is catalyzed by HRP, generating blue coloration. This reaction is then stopped by addition of Stop Solution completing any color change from blue to yellow. Signal is generated proportionally to the amount of bound analyte and the intensity is measured at 450 nm. Firstly, prepare all reagents, samples, and standards as instructed. Add 50 μl standard or sample to appropriate wells. Then add 50 μl of the Antibody Cocktail to each well. Seal the plate and incubate for 1 hour at room temperature on a plate shaker. Wash each well with Wash Buffer three times. Add 100 μl of TMB Development Solution to each well and incubate for 10 minutes in the dark on a plate shaker. Add 100 μl of Stop Solution to each well. Shake plate on a plate shaker for 1 minute to mix. Record the OD at 450 nm. Determine the concentration of the target protein in the sample by the standard curve.
EC50 value was determined by fitting the concentration response curves using GraphPad Prism software. The compounds of the present invention were tested for their capacity to inhibit TEAD-YAP/TAZ interaction according to the fitted curves of CTGF concentration response to compounds.

| SMILES | pEC50 |
| --- | --- |
| C=CC(=O)N1CC(n2nc(-c3ccc(C(F)(F)F)cc3F)c3cccnc32)C1 [Compound 127, 1-(3-(3-(2-fluoro-4-(trifluoro-methyl)phenyl)-1H-pyrazolo[3,4-b]pyridin-1-yl)azetidin-1-yl)prop-2-en-1-one] | 8.10 |
| C=C(F)C(=O)N1CC(n2nc(-c3ccc(C(F)(F)F)cc3)c3ncc(OC)nc32)C1 [Compound 223, 2-fluoro-1-(3-(6-methoxy-3-(4-(trifluoromethyl)phenyl)-1H-pyrazolo[3,4-b]pyrazin-1-yl)-azetidin-1-yl)prop-2-en-1-one] | 9.22 |
| C=C(F)C(=O)N1CC(n2nc(-c3ccc(C(F)(F)F)cc3)c3nc(C)n(C)c(=O)c32)C1 [Compound 225, 1-(1-(2-fluoroacryloyl)azetidin-3-yl)-5,6-dimethyl-3-(4-(trifluoro-methyl)phenyl)-1,6-dihydro-7H-pyrazolo[4,3-d]pyrimidin-7-one] | 8.44 |
| C=C(F)C(=O)N1CCC(n2nc(-c3ccc(C(F)(F)F)cc3)c3ncn(C)c(=O)c32)C1 (stereo not shown) [Compound 77, 1-(1-(2-fluoroacryloyl)pyrrolidin-3-yl)-6-methyl-3-(4-(trifluoro-methyl)phenyl)-1,6-dihydro-7H-pyrazolo[4,3-d]pyrimidin-7-one] | 8.22 |
| C=CC(=O)N1CC(n2nc(-c3ccc(C(F)(F)F)cc3)c3cccc(NC(C)=O)c32)C1 [Compound 15, N-(1-(1-acryloylazetidin-3 yl)-3-(4-(trifluoromethyl)phenyl)-1H-indazol-7-yl)acetamide] | 7.46 |
| C=CC(=O)NC1CCC(n2nc(-c3ccc(C(F)(F)F)cc3)c3ccccc32)C1 (stereo not shown) [Compound 37, N-(3-(3-(4-(trifluoromethyl)phen-yl)-1H-indazol-1-yl)cyclopentyl)-acrylamide] | 7.38 |
| C#CC(=O)N1CCC(n2nc(-c3ccc(C(F)(F)F)cc3)c3ccccc32)C1 (stereo not shown) [Compound 57, 1-(3-(3-(4-(trifluoromethyl)phen-yl)-1H-indazol-1-yl)pyrrolidin-1-yl)prop-2-yn-1-one] | 7.09 |
| C=CC(=O)N1CC(n2c(=O)n(-c3ccc(C(F)(F)F)cc3)c3ccccc32)C1 [Compound 236, 1-(1-acryloylazetidin-3-yl)-3-(4-(trifluoromethyl)phenyl)-1,3-dihydro-2H-benzo[d]imidazol-2-one] | 8.52 |
| C=CC(=O)N1CCC(n2nc(-c3ccc(C(F)(F)F)cc3)c3cccc(C)c32)C1 (stereo not shown) [Compound 39, 1-(3-(7-methyl-3-(4-(trifluoro-methyl)phenyl)-1H-indazol-1-yl)pyrrolidin-1-yl)prop-2-en-1-one] | 7.85 |
| C=CC(=O)N1CC(n2nc(-c3ccc(C(F)(F)F)cc3)c3nccnc32)C1 [Compound 161, 1-(3-(3-(4-(trifluoromethyl)phen-yl)-1H-pyrazolo[3,4-b]pyrazin-1-yl)azetidin-1-yl)prop-2-en-1-one] | 8.52 |
| C=CC(=O)N1CCC(n2nc(-c3ccc(C(F)(F)F)cc3)c3cccc(C#N)c32)C1 (stereo not shown) [Compound 48, 1-(1-acryloylpyrrolidin-3-yl)-3-(4-(trifluoromethyl)phenyl)-1H-indazole-7-carbonitrile] | 7.82 |
| C=C(F)C(=O)N1CC(n2nc(-c3ccc(C(C)C)cc3)c3cccnc32)C1 [Compound 171, 2-fluoro-1-(3-(3-(4-isopropyl-phenyl)-1H-pyrazolo[3,4-b]-pyridin-1-yl)azetidin-1-yl)prop-2-en-1-one] | 6.83 |
| C=C(F)C(=O)N1CC(n2nc(-c3ccc(C(F)(F)F)nc3)c3ccccc32)C1 [Compound 197, 2-fluoro-1-(3-(3-(6-(trifluoro-methyl)pyridin-3-yl)-1H-indazol-1-yl)azetidin-1-yl)prop-2-en-1-one] | 7.90 |
| C=CC(=O)N1CCC(n2nc(-c3ccc(C(F)(F)F)cc3)c3nccnc32)C1 (stereo not shown) [Compound 18, 1-(3-(3-(4-(trifluoromethyl)phen-yl)-1H-pyrazolo[3,4-b]pyrazin-1-yl)pyrrolidin-1-yl)prop-2-en-1-one] | 8.00 |
| C=C(F)C(=O)N1CC(c2nc(-c3ccc(C(F)(F)F)cc3)nc3ccccc23)C1 [Compound 256, 2 fluoro-1-(3-(2-(4-(trifluoromethyl)phenyl)quinazolin-4 yl)azetidin-1 yl)prop-2-en-1-one] | 9.15 |
| C=CC(=O)N1CCC(n2nc(-c3ccc(C(F)(F)F)cc3)c3cc(C)cnc32)C1 (stereo not shown) [Compound 96, 1-(3-(5-methyl-3-(4-(trifluoro-methyl)phenyl)-1H-pyrazolo[3,4-b]pyridin-1-yl)pyrrolidin-1-yl)-prop-2-en-1-one] | 8.40 |
| C/C=C/C(=O)N1CCC(n2nc(-c3ccc(C(F)(F)F)cc3)c3ccccc32)C1 (stereo not shown) [Compound 56, (E)-1-(3-(3-(4-(trifluoromethyl)-phenyl)-1H-indazol-1-yl)pyrrol-idin-1-yl)but-2-en-1-one] | 7.15 |
| C=CC(=O)N1CCC(n2nc(-c3ccc(C(F)(F)F)cc3)c3ccc(F)cc32)C1 (stereo not shown) [Compound 50, 1-(3-(6-fluoro-3-(4-(trifluoro-methyl)phenyl)-1H-indazol-1-yl)-pyrrolidin-1-yl)prop-2-en-1-one] | 7.64 |
| C=CC(=O)N1CCC(n2nc(-c3ccc(C(F)(F)F)cc3)c3cccc(C(=O)N4CCC(F)(F)C4)c32)C1 (stereo not shown) [Compound 112, 1-(3-(7-(3,3-difluoropyrrolidine-1-carbonyl)-3-(4-(trifluoro-methyl)phenyl)-1H-indazol-1-yl)-pyrrolidin-1-yl)prop-2-en-1-one] | 7.07 |
| C=CC(=O)N1CCC(c2nn(-c3ccc(C(F)(F)F)cc3)c3ccccc23)C1 (stereo not shown) [Compound 4, 1-(3-(1-(4-(trifluoromethyl)phenyl)-1H-indazol-3-yl)pyrrolidin-1-yl)prop-2-en-1-one] | 7.81 |
| C=C(F)C(=O)N1CC(n2c(=O)n(-c3ccc(C(F)(F)F)cc3)c3cccnc32)C1 [Compound 230, 3-(1-(2 fluoroacryloyl)azetidin-3 yl)-1-(4-(trifluoromethyl)phenyl)-1,3-dihydro-2H-imidazo[4,5-b]pyridin-2-one] | 8.19 |
| C=C(F)C(=O)N1CC(n2c(=O)n(-c3ccc(Oc4ccccc4)cc3)c3cnccc32)C1 [Com. EX.4, 1-(1-(2-fluoroacryloyl)azetidin-3-yl)-3-(4-phenoxyphenyl)-1,3-dihydro-2H-imidazo[4,5-c]pyridin-2-one, reference compound] | < 5.00 |
| C=C(F)C(=O)N1CC(n2c(=O)n(-c3ccc(C(F)(F)F)cc3)c3cc(C(F)(F)F)cnc32)C1 [Compound 245, 3-(1-(2-fluoroacryloyl)azetidin-3-yl)-6-(trifluoromethyl)-1-(4-(trifluoromethyl)phenyl)-1,3-dihydro-2H-imidazo[4,5-b]pyridin-2-one] | 7.49 |
| C=C(F)C(=O)N1CC(n2nc(-c3cnc(C(F)(F)F)c(F)c3)c3cccnc32)C1 [Compound 184, 2-fluoro-1-(3-(3-(5-fluoro-6-(trifluoromethyl)pyridin-3-yl)-1H-pyrazolo[3,4-b]pyridin-1-yl)-azetidin-1-yl)prop-2-en-1-one] | 8.11 |
| C=C(F)C(=O)N1CC(n2c(=O)n(-c3ccc(C(F)(F)F)cc3)c3ccc(Cl)nc32)C1 [Compound 252, 5-chloro-3-(1-(2-fluoroacryloyl)azetidin-3-yl)-1-(4-(trifluoromethyl)phenyl)-1,3-dihydro-2H-imidazo[4,5-b]pyridin-2-one] | 8.01 |
| C=C(F)C(=O)N1CC(n2nc(-c3ccc(C(F)(F)F)nc3)c3nccnc32)C1 [Compound 198, 2-fluoro-1-(3-(3-(6-(trifluoro-methyl)pyridin-3-yl)-1H-pyrazolo[3,4-b]pyrazin-1-yl)-azetidin-1-yl)prop-2-en-1-one] | 9.05 |
| C=C(F)C(=O)N1CC(n2nc3c(c2-c2ccc(C(F)(F)F)cc2)COCC3)C1 [Compound 209, 2-fluoro-1-(3-(3-(4-(trifluoro-methyl)phenyl)-6,7-dihydro-pyrano[4,3-c]pyrazol-2(4H)-yl)azetidin-1-yl)prop-2-en-1-one] | 7.60 |
| C=CC(=O)N1CCN(C(=O)c2nn(-c3ccc(C(F)(F)F)cc3)c3ccccc23)CC1 [Compound 43, 1-(4-(1-(4-(trifluoromethyl)phen-yl)-1H-indazole-3-carbonyl)-piperazin-1-yl)prop-2-en-1-one] | 7.96 |
